Laboratory results reported in ChEMBL document CHEMBL5678810.

Legend:
[1] = target: Serine/threonine-protein kinase 24 (Homo sapiens) (UniProt Q9Y6E0); test: Inhibition of T7 bacteriophage fused human MST3 at 10 uM by KINOMEscan analysis relative to control; values are per cent of control
[2] = tested on: Hepatocyte growth factor receptor (Homo sapiens), P08581 [M1250T]; test: Inhibition of T7 bacteriophage fused human MET M1250T mutant at 10 uM by KINOMEscan analysis relative to control; values are per cent of control
[3] = target: Dual specificity tyrosine-phosphorylation-regulated kinase 2 (Homo sapiens) (UniProt Q92630); test: Inhibition of T7 bacteriophage fused human DYRK2 at 10 uM by KINOMEscan analysis relative to control; values are per cent of control
[4] = target: Serine/threonine-protein kinase SIK3 (Homo sapiens) (UniProt Q9Y2K2); test: Inhibition of T7 bacteriophage fused human QSK at 10 uM by KINOMEscan analysis relative to control
[5] = target: Serine/threonine-protein kinase 38-like (Homo sapiens) (UniProt Q9Y2H1); test: Inhibition of T7 bacteriophage fused human NDR2 at 10 uM by KINOMEscan analysis relative to control
[6] = target: Phosphorylase b kinase gamma catalytic chain, skeletal muscle/heart isoform (Homo sapiens) (UniProt Q16816); test: Inhibition of T7 bacteriophage fused human PHKG1 at 10 uM by KINOMEscan analysis relative to control
[7] = target: Phosphatidylinositol 5-phosphate 4-kinase type-2 beta (Homo sapiens) (UniProt P78356); test: Inhibition of T7 bacteriophage fused human PIP5K2B at 10 uM by KINOMEscan analysis relative to control
[8] = target: Cyclin-dependent kinase-like 5 (Homo sapiens) (UniProt O76039); test: Inhibition of T7 bacteriophage fused human CDKL5 at 10 uM by KINOMEscan analysis relative to control
Chain of Cyclin-dependent kinase-like 5 (Homo sapiens) (O76039 whole entry, the tested form may be a part): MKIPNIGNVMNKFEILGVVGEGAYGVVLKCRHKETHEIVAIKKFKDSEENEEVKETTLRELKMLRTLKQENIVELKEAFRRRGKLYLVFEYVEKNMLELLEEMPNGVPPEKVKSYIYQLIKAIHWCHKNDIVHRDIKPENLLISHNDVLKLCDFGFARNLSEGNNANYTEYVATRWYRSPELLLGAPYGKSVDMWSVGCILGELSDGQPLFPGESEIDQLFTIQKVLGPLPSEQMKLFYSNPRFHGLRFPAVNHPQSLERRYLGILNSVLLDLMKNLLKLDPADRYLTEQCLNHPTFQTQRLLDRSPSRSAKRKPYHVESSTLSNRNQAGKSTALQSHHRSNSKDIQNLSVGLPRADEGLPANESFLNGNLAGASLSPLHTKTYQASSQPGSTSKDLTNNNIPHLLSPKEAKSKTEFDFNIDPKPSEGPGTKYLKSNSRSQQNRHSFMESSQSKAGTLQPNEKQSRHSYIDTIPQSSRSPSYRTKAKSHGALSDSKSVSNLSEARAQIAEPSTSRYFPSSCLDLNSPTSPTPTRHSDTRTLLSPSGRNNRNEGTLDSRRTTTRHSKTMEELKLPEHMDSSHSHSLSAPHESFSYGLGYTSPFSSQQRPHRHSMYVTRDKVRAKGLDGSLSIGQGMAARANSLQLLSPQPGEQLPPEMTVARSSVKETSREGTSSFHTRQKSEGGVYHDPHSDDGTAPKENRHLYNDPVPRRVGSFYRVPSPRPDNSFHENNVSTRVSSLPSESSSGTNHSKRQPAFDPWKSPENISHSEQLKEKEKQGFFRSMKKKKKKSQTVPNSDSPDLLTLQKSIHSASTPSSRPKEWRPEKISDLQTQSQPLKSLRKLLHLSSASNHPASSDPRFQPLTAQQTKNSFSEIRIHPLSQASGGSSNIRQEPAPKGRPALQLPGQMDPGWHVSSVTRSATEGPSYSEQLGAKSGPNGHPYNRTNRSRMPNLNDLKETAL

[9] = target: MAP kinase-activated protein kinase 2 (Homo sapiens) (UniProt P49137); test: Inhibition of T7 bacteriophage fused human MAPKAPK2 at 10 uM by KINOMEscan analysis relative to control
[10] = target: Tyrosine-protein kinase CSK (Homo sapiens) (UniProt P41240); test: Inhibition of T7 bacteriophage fused human CSK at 10 uM by KINOMEscan analysis relative to control; values are per cent of control
[11] = target: Dual specificity protein kinase CLK3 (Homo sapiens) (UniProt P49761); test: Inhibition of T7 bacteriophage fused human CLK3 at 10 uM by KINOMEscan analysis relative to control
Chain of Dual specificity protein kinase CLK3 (Homo sapiens) (P49761 whole entry, looked up, the tested form may be a part): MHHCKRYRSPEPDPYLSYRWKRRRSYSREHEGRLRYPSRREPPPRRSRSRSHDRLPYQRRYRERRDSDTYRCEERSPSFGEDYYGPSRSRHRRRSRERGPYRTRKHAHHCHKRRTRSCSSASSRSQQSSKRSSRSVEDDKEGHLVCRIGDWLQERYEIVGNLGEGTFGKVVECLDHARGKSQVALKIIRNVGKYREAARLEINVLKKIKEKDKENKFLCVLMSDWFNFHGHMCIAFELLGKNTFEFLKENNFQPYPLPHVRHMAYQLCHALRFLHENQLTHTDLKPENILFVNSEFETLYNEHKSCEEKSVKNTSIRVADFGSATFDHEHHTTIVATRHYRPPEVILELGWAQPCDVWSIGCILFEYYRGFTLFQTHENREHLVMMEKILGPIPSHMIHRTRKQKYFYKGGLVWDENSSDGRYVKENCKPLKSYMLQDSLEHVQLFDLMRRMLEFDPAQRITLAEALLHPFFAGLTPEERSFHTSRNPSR

[12] = target: Inhibitor of nuclear factor kappa-B kinase subunit alpha (Homo sapiens) (UniProt O15111); test: Inhibition of T7 bacteriophage fused human IKK-alpha at 10 uM by KINOMEscan analysis relative to control
[13] = target: Dual specificity mitogen-activated protein kinase kinase 2 (Homo sapiens) (UniProt P36507); test: Inhibition of T7 bacteriophage fused human MEK2 at 10 uM by KINOMEscan analysis relative to control; values are per cent of control
[14] = target: Tyrosine-protein kinase Fes/Fps (Homo sapiens) (UniProt P07332); test: Inhibition of T7 bacteriophage fused human FES at 10 uM by KINOMEscan analysis relative to control; values are per cent of control
[15] = target: Tyrosine-protein kinase ABL1 (Homo sapiens) (UniProt P00519); test: Inhibition of T7 bacteriophage fused human phosphorylated ABL1 at 10 uM by KINOMEscan analysis relative to control
Chain of Tyrosine-protein kinase ABL1 (Homo sapiens) (P00519 whole entry, the tested form may be a part): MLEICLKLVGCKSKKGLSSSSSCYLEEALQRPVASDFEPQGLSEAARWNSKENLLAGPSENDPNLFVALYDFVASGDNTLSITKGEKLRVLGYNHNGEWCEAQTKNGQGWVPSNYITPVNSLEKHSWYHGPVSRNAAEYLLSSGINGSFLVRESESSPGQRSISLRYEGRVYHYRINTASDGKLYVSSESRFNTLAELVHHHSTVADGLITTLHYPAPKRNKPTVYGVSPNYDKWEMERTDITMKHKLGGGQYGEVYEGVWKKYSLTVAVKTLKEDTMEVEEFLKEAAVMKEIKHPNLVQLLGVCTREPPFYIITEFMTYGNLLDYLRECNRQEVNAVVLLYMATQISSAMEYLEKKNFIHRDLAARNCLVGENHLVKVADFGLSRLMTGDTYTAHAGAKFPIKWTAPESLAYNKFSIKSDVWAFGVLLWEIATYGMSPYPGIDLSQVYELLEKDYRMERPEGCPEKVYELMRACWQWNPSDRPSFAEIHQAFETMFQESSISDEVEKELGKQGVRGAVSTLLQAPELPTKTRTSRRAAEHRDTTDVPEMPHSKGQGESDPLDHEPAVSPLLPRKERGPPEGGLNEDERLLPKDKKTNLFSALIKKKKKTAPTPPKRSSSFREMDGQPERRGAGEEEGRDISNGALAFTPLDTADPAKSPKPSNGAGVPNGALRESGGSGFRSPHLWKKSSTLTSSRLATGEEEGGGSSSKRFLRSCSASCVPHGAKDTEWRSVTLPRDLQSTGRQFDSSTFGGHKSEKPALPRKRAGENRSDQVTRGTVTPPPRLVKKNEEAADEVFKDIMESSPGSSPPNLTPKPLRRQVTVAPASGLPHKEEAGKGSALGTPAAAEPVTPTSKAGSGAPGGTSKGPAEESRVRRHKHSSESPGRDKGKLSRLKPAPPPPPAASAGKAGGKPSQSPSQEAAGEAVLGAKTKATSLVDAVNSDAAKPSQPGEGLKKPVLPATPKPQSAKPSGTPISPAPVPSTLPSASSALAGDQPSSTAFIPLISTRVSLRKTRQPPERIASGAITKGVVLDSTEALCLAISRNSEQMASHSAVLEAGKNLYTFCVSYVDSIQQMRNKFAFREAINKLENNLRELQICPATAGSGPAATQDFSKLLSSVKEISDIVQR

[16] = target: Maternal embryonic leucine zipper kinase (Homo sapiens) (UniProt Q14680); test: Inhibition of T7 bacteriophage fused human MELK at 10 uM by KINOMEscan analysis relative to control
Chain of Maternal embryonic leucine zipper kinase (Homo sapiens) (Q14680 whole entry, looked up, the tested form may be a part): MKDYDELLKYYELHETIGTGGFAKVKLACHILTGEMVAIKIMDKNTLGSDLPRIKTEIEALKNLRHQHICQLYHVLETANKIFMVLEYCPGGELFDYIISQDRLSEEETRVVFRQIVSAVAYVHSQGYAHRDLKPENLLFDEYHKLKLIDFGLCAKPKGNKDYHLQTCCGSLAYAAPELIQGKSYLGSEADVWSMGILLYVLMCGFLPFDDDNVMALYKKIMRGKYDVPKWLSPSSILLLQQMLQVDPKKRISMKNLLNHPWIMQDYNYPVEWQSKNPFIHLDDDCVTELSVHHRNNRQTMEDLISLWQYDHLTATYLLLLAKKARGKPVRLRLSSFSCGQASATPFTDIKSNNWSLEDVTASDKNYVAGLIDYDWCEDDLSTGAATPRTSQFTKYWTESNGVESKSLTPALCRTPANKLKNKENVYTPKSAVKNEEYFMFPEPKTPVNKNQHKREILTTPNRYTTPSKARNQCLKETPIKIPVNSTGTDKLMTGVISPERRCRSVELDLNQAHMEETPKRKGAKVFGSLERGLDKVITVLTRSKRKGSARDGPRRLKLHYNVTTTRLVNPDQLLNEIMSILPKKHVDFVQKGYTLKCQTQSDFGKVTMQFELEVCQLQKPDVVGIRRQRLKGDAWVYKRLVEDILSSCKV

[17] = target: Rho-associated protein kinase 2 (Homo sapiens) (UniProt O75116); test: Inhibition of T7 bacteriophage fused human ROCK2 at 10 uM by KINOMEscan analysis relative to control
[18] = target: Cyclin-dependent kinase 11B (Homo sapiens) (UniProt P21127); test: Inhibition of T7 bacteriophage fused human CDC2L1 at 10 uM by KINOMEscan analysis relative to control
[19] = target: Cyclin-dependent kinase 9 (Homo sapiens) (UniProt P50750); test: Inhibition of T7 bacteriophage fused human CDK9 at 10 uM by KINOMEscan analysis relative to control
[20] = tested on: Tyrosine-protein kinase ABL1 (Homo sapiens), P00519 [E255K]; test: Inhibition of T7 bacteriophage fused human phosphorylated ABL1 E255K mutant at 10 uM by KINOMEscan analysis relative to control
Chain of Tyrosine-protein kinase ABL1 (Homo sapiens), P00519 [E255K] (P00519 whole entry E255K, the tested form may be a part): as the sequence (P00519 whole entry, the tested form may be a part) above, with E255K counted along it

[21] = target: Calcium/calmodulin-dependent protein kinase type 1 (Homo sapiens) (UniProt Q14012); test: Inhibition of T7 bacteriophage fused human CAMK1 at 10 uM by KINOMEscan analysis relative to control
[22] = target: Serine/threonine-protein kinase TAO2 (Homo sapiens) (UniProt Q9UL54); test: Inhibition of T7 bacteriophage fused human TAOK2 at 10 uM by KINOMEscan analysis relative to control
[23] = target: Serine/threonine-protein kinase Nek6 (Homo sapiens) (UniProt Q9HC98); test: Inhibition of T7 bacteriophage fused human NEK6 at 10 uM by KINOMEscan analysis relative to control
[24] = target: Tyrosine-protein kinase ABL1 (Homo sapiens) (UniProt P00519); test: Inhibition of T7 bacteriophage fused human nonphosphorylated ABL1 at 10 uM by KINOMEscan analysis relative to control
[25] = target: Protein kinase C iota type (Homo sapiens) (UniProt P41743); test: Inhibition of T7 bacteriophage fused human PRKCI at 10 uM by KINOMEscan analysis relative to control
[26] = target: Cyclin-dependent kinase 17 (Homo sapiens) (UniProt Q00537); test: Inhibition of T7 bacteriophage fused human PCTK2 at 10 uM by KINOMEscan analysis relative to control
[27] = target: Mitogen-activated protein kinase 15 (Homo sapiens) (UniProt Q8TD08); test: Inhibition of T7 bacteriophage fused human ERK8 at 10 uM by KINOMEscan analysis relative to control
[28] = target: Serine/threonine-protein kinase 17A (Homo sapiens) (UniProt Q9UEE5); test: Inhibition of T7 bacteriophage fused human DRAK1 at 10 uM by KINOMEscan analysis relative to control
[29] = target: Myosin-IIIb (Homo sapiens) (UniProt Q8WXR4); test: Inhibition of T7 bacteriophage fused human MYO3B at 10 uM by KINOMEscan analysis relative to control
Chain of Myosin-IIIb (Homo sapiens) (Q8WXR4 whole entry, the tested form may be a part): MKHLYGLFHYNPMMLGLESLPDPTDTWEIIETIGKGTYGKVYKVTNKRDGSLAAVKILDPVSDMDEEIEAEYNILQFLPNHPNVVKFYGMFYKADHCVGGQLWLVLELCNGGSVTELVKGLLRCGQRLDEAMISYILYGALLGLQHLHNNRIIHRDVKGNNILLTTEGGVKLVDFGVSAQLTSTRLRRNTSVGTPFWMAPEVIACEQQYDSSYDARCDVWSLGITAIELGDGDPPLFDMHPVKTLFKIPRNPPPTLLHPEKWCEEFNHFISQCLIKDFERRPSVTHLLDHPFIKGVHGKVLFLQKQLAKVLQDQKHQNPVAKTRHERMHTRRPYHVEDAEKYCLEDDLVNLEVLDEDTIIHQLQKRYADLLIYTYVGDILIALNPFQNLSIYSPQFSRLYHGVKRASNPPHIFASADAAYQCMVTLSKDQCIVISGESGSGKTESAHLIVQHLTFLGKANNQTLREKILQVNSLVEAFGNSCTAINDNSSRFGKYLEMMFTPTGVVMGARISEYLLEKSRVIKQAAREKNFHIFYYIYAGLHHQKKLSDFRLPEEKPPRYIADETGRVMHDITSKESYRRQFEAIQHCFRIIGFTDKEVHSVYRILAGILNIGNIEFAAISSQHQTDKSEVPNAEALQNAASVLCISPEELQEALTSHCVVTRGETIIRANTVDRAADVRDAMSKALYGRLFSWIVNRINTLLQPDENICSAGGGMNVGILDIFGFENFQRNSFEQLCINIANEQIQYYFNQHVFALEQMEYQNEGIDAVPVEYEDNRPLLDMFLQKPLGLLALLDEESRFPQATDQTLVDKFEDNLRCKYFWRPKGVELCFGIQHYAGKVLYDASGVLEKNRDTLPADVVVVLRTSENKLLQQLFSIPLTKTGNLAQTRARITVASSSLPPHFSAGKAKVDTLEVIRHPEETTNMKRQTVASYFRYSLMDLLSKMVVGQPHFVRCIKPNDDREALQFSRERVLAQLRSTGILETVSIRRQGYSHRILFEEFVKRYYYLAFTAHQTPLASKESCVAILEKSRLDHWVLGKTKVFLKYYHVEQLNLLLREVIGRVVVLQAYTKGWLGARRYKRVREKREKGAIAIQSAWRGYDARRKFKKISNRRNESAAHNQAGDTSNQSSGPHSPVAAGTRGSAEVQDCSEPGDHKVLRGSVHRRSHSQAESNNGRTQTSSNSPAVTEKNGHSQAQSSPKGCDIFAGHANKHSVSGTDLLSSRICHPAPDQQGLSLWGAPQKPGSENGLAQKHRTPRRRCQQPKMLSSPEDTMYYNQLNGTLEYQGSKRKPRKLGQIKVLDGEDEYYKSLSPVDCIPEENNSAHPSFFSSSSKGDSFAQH

[30] = tested on: Epidermal growth factor receptor (Homo sapiens), P00533 [UNDEFINED MUTATION]; test: Inhibition of T7 bacteriophage fused human EGFR S752-I759del mutant at 10 uM by KINOMEscan analysis relative to control; values are per cent of control
[31] = target: Serine/threonine-protein kinase STK11 (Homo sapiens) (UniProt Q15831); test: Inhibition of LKB1 Lys2 labeling site in human HEL cell lysate at 10 uM by KiNativ profiling analysis relative to control; assay type: subcellular
Chain of Serine/threonine-protein kinase STK11 (Homo sapiens) (Q15831 whole entry): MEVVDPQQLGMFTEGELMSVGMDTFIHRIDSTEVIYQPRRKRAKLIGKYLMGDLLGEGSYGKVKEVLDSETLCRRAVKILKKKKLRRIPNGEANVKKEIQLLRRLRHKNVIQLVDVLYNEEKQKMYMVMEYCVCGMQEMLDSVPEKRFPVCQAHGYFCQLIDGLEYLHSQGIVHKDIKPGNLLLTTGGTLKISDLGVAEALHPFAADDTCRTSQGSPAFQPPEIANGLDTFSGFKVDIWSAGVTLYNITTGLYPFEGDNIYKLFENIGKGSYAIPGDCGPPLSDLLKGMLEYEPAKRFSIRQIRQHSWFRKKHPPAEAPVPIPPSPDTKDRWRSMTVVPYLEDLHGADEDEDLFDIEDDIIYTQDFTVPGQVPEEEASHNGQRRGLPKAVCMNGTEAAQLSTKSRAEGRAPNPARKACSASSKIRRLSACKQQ

COc1cc(N2CCC(N3CCN(C)CC3)CC2)ccc1Nc1ncc2c(n1)N(C)c1ccccc1C(=O)N2C
residual activity [1]: 87% | residual activity [2]: 96% | residual activity [3]: 76% | inhibition [4]: 100% | inhibition [5]: 100% | inhibition [6]: 54% | inhibition [7]: 100% | inhibition [8]: 100% | inhibition [9]: 100% | residual activity [10]: 90% | inhibition [11]: 95% | inhibition [12]: 100% | residual activity [13]: 99% | residual activity [14]: 84% | inhibition [15]: 82% | inhibition [16]: 100% | inhibition [17]: 87% | inhibition [18]: 84% | inhibition [19]: 100% | inhibition [20]: 80% | inhibition [21]: 55% | inhibition [22]: 65% | inhibition [23]: 76% | inhibition [24]: 100% | inhibition [25]: 100% | inhibition [26]: 83% | inhibition [27]: 100% | inhibition [28]: 100% | inhibition [29]: 83% | residual activity [30]: 99%

COc1cc(C(=O)N2CCC(N3CCN(C)CC3)CC2)ccc1Nc1ncc2c(n1)N(C1CCCC1)c1ccccc1C(=O)N2C
inhibition [31]: -0.3%
